Measured values: ChEMBL document CHEMBL5291721, “A preclinical secondary pharmacology resource illuminates target-adverse drug reaction associations of marketed drugs” (Nat Commun, 2023)

Key:
[1] = molecular target: T1, Alpha-1A adrenergic receptor (Homo sapiens, UniProt P35348); format: functional, cell-based
T1 sequence (P35348 whole entry): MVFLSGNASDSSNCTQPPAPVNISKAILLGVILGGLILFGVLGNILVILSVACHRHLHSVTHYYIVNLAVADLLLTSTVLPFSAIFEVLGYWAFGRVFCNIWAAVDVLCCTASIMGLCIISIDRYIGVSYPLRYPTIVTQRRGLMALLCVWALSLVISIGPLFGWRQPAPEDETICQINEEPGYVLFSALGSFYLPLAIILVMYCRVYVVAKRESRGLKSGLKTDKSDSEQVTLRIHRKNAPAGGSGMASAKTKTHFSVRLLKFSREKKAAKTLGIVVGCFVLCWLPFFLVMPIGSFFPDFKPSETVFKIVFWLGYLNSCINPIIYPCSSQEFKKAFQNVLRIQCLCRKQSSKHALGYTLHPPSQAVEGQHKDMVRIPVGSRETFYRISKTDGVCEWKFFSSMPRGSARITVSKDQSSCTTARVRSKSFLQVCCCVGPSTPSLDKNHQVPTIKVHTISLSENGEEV

[2] = molecular target: Sodium-dependent dopamine transporter (Homo sapiens, UniProt Q01959)
Chain of Sodium-dependent dopamine transporter (Q01959 whole entry): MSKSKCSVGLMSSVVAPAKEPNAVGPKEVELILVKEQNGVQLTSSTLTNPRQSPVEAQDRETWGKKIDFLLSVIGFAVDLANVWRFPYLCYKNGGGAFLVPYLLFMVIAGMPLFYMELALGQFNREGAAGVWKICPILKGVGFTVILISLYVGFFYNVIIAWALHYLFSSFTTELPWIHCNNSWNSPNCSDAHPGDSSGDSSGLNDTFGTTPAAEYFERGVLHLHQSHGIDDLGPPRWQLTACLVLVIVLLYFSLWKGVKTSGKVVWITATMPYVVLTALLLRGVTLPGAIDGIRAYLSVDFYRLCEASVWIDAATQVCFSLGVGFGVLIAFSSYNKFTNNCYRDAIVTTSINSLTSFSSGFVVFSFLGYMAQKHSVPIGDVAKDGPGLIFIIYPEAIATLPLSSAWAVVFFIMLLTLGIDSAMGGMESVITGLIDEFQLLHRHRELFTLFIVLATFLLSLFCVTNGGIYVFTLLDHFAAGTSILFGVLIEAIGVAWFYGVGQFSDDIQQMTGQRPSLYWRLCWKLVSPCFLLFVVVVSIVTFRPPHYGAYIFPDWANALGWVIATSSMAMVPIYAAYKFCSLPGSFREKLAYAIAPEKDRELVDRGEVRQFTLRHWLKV

[3] = molecular target: Voltage-gated inwardly rectifying potassium channel KCNH2 (Homo sapiens, UniProt Q12809); format: functional; details: read-out: AC50
[4] = molecular target: Vascular endothelial growth factor receptor 2 (Homo sapiens, UniProt P35968); format: functional
Chain of Vascular endothelial growth factor receptor 2 (P35968 whole entry): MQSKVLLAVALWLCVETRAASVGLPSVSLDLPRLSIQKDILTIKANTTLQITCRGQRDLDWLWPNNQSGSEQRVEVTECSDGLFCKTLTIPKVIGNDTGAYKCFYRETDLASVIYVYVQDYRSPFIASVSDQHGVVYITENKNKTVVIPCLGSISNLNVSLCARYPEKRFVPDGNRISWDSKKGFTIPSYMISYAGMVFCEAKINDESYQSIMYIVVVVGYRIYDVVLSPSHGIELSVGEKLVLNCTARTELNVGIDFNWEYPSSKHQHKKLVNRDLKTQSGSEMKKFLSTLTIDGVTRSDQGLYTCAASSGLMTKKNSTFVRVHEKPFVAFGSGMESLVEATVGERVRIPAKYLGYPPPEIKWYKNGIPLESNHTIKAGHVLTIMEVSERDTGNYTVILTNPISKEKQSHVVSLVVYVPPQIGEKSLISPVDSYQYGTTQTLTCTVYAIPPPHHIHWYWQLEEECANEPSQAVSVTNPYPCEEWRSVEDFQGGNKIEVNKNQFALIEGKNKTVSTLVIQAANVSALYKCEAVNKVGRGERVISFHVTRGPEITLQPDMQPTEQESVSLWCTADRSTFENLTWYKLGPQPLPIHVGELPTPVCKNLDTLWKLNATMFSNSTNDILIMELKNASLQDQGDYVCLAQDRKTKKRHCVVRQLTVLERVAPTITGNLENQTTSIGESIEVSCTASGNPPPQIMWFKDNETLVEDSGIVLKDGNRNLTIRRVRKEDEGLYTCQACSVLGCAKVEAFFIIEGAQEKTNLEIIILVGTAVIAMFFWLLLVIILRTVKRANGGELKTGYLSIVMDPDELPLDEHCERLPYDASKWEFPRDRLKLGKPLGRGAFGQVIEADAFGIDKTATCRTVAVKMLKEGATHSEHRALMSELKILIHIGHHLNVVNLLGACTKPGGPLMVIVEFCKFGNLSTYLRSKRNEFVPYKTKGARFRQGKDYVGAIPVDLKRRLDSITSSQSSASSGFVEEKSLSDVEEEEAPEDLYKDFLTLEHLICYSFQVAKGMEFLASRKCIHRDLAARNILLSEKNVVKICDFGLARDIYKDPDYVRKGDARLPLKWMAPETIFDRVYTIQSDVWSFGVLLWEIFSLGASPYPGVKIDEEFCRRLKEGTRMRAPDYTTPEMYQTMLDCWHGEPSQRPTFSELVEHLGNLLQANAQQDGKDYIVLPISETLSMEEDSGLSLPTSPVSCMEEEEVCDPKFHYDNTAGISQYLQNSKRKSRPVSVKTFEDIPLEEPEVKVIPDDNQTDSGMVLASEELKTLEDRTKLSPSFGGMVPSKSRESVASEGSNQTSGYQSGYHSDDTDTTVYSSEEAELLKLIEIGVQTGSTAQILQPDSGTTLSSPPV

Thromboxane A2 receptor = molecular target: T2, Thromboxane A2 receptor (Homo sapiens, UniProt P21731); format: functional, cell-based
T2 sequence (P21731 whole entry): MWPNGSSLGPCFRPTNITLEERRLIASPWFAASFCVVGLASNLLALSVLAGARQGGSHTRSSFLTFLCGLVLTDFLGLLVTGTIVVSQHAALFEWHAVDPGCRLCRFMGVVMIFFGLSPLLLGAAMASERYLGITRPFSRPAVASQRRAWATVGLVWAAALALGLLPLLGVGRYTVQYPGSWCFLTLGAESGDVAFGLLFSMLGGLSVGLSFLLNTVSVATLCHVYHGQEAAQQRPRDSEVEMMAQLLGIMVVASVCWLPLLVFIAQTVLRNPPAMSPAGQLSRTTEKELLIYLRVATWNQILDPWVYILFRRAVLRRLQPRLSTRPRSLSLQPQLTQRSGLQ

[5] = molecular target: T3, Muscarinic acetylcholine receptor M2 (Homo sapiens, UniProt P08172)
T3 sequence (P08172 whole entry): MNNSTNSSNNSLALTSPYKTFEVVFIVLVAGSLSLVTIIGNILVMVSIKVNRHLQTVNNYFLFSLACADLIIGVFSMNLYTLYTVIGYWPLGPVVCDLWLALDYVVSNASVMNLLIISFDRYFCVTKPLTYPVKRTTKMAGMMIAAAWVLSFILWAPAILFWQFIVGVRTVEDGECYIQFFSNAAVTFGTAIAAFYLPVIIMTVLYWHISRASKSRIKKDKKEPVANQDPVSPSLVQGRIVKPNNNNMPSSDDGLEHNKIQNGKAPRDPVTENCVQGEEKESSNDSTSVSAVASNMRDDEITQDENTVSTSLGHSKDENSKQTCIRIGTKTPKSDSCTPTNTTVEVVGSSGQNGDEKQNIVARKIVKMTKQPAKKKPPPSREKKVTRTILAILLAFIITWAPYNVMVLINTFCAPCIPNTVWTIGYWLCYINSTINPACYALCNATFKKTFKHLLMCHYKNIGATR

[6] = molecular target: T4, Alpha-2A adrenergic receptor (Homo sapiens, UniProt P08913)
T4 sequence (P08913 whole entry): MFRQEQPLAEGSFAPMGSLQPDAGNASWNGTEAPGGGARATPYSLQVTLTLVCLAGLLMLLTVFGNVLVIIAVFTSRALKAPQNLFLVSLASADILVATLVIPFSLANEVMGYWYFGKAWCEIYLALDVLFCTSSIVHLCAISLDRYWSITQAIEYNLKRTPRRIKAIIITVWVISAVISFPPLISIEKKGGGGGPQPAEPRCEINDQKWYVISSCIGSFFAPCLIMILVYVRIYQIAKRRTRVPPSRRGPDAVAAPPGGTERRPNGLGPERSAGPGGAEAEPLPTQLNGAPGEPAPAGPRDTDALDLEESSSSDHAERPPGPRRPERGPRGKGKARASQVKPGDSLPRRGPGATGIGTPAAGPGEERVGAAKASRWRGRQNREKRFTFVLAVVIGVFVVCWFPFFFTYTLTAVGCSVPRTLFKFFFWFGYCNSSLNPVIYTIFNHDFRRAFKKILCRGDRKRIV

[7] = molecular target: 3',5'-cyclic-AMP phosphodiesterase 4A (Homo sapiens, UniProt P27815); format: functional
Chain of 3',5'-cyclic-AMP phosphodiesterase 4A (P27815 whole entry): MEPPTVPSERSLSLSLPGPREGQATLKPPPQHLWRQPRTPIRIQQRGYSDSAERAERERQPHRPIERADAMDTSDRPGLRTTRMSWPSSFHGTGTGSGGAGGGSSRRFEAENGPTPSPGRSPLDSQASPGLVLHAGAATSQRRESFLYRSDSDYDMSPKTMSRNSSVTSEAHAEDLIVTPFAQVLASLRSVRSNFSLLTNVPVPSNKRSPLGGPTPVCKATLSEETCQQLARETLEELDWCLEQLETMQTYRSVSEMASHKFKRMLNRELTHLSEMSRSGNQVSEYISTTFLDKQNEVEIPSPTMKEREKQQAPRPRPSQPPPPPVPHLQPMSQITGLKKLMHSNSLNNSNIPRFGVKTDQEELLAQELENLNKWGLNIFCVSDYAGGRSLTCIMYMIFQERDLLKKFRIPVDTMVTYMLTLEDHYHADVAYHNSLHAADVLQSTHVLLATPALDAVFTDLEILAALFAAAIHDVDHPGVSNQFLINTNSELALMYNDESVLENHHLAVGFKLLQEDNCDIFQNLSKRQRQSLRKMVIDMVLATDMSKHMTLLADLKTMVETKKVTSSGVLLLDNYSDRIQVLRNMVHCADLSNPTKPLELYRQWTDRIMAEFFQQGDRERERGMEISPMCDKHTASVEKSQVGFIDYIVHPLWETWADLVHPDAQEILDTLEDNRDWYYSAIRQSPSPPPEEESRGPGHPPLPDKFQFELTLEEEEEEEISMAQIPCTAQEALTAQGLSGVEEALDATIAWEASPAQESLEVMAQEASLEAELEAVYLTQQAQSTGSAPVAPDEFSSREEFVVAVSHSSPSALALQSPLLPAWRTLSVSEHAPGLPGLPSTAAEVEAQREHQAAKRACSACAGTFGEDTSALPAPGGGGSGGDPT

[8] = molecular target: T5, Amine oxidase [flavin-containing] A (Homo sapiens, UniProt P21397); format: functional
T5 sequence (P21397 whole entry): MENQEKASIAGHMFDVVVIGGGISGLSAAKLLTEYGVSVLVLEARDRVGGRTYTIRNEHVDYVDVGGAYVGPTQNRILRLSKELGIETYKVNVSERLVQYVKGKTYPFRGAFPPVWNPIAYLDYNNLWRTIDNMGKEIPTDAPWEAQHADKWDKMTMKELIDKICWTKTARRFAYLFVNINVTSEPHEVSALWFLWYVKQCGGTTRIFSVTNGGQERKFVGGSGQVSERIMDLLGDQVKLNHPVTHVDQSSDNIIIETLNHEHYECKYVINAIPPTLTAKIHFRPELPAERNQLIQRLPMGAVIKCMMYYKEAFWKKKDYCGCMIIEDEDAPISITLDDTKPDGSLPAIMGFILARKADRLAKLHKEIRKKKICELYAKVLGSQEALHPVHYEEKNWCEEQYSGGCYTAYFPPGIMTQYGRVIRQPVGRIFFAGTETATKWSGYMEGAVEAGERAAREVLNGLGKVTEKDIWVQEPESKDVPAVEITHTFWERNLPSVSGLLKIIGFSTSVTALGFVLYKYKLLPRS

[9] = molecular target: Prostaglandin G/H synthase 1 (Homo sapiens, UniProt P23219); format: functional
Chain of Prostaglandin G/H synthase 1 (P23219 whole entry): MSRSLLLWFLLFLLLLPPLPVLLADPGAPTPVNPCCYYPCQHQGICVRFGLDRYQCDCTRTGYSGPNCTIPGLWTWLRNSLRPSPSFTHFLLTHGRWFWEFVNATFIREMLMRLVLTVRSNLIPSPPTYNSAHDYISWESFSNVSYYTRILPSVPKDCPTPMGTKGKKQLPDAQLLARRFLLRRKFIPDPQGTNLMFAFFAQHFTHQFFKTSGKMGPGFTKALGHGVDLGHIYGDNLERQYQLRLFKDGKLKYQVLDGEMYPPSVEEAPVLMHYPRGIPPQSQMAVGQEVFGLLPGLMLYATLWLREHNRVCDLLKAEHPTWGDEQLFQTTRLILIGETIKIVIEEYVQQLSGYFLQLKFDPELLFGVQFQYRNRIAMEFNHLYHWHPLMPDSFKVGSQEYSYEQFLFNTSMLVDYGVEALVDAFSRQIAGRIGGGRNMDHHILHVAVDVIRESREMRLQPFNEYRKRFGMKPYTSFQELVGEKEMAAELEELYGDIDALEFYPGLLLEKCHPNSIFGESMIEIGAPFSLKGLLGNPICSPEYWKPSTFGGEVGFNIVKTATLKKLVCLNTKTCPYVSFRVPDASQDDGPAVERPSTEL

[10] = molecular target: cGMP-inhibited 3',5'-cyclic phosphodiesterase 3A (Homo sapiens, UniProt Q14432); format: functional
Chain of cGMP-inhibited 3',5'-cyclic phosphodiesterase 3A (Q14432 whole entry): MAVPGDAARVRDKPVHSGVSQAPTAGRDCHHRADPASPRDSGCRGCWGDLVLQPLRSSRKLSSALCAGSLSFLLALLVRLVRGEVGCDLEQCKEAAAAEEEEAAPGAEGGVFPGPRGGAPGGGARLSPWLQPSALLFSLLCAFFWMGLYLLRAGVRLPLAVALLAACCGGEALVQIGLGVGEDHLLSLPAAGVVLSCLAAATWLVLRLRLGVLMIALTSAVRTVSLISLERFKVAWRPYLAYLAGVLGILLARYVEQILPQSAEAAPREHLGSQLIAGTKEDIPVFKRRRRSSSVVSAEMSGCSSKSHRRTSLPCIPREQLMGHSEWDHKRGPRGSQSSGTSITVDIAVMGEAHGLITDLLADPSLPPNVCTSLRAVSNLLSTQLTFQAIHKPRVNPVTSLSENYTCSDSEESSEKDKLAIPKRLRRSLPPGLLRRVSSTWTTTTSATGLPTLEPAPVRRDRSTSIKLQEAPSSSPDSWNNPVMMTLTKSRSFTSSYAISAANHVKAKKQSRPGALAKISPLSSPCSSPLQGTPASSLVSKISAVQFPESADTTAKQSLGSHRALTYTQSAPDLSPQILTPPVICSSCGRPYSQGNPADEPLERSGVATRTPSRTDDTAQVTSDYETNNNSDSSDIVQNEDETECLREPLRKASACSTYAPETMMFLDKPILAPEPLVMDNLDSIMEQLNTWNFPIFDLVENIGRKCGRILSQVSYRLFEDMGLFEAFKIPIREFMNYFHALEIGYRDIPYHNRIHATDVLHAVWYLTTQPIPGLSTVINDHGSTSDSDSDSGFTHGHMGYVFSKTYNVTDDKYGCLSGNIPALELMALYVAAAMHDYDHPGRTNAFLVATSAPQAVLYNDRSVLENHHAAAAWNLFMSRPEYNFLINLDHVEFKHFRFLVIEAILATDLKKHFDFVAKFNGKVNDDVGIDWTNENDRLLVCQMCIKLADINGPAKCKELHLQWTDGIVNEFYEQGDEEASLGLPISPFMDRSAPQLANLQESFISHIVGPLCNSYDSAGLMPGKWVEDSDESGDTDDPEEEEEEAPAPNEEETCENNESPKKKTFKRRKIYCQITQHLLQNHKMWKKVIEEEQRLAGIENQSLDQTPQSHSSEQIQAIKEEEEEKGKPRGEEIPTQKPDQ
Further: assay procedure not described here.

Row | SMILES | AC50 [1] [µM] | AC50 [2] [µM] | AC50 [3] [µM] | AC50 [4] [µM] | AC50 (Thromboxane A2 receptor) [µM] | AC50 [5] [µM] | AC50 [6] [µM] | AC50 [7] [µM] | AC50 [8] [µM] | AC50 [9] [µM] | AC50 [10] [µM]
1 | CCC(C)(C)c1ccc(CC(C)CN2C[C@@H](C)O[C@@H](C)C2)cc1 (stereo partly specified) [AMOROLFINE] | > 30 | > 30 | 11 | > 30 | > 30 | > 30 | > 30 | > 30 | > 30 | > 30 | > 30
2 | N=c1ccn2c(n1)O[C@H]1[C@H](O)[C@@H](CO)O[C@H]12 [ANCITABINE] | > 30 | > 30 | > 30 | > 30 | > 30 | > 30 | > 30 | > 30 | > 30 | > 30 | > 30
3 | CCCNC(C)C(=O)Nc1c(C)csc1C(=O)OC (stereo unspecified) [ARTICAINE] | > 30 | > 30 | > 30 | > 30 | > 30 | > 30 | > 30 | > 30 | > 30 | > 30 | > 30
4 | CCCC1O[C@@H]2C[C@H]3[C@@H]4CCC5=CC(=O)C=C[C@]5(C)[C@H]4[C@@H](O)C[C@]3(C)[C@]2(C(=O)CO)O1 (stereo partly specified) [BUDESONIDE] | > 30 | > 30 | > 30 | > 30 | > 30 | > 30 | > 30 | > 30 | > 30 | > 30 | > 30
5 | CC(C)(C)N1CCC(c2ccccc2)(c2ccccc2)CC1 [BUDIPINE] | > 30 | > 30 | 6.5 | > 30 | > 30 | 0.301 | > 30 | > 30 | > 30 | > 30 | > 30
6 | CC(=O)OCC1=C(C(=O)O)N2C(=O)[C@@H](NC(=O)[C@H](N)c3ccccc3)[C@H]2SC1 [CEPHALOGLYCIN] | > 30 | > 30 | > 30 | > 30 | > 30 | > 30 | > 30 | > 30 | > 30 | 5.93 | > 30
7 | CC(C)(C)C(=O)C(Oc1ccc(Cl)cc1)n1ccnc1 (stereo unspecified) [CLIMBAZOLE] | 25.6 | 0.0662 | > 30 | > 30 | > 30 | > 30 | > 30 | > 30 | > 30 | > 30 | > 30
8 | NC1CCN(c2c(F)cc3c(=O)c(C(=O)O)cn(C4CC4)c3c2Cl)C1 (stereo unspecified) [CLINAFLOXACIN] | > 30 | > 30 | > 30 | > 30 | > 30 | 5.08 | > 30 | > 30 | > 30 | > 30 | > 30
9 | CC(C)(C)CC(C)(C)c1ccc(O)c(Cc2ccc(Cl)cc2Cl)c1 [CLOFOCTOL] | > 30 | 3.54 | 11 | > 30 | > 30 | > 10 | > 30 | 5.93 | > 30 | 2.56 | 5.81
10 | Clc1ccc(C(OCCN2CCCCC2)c2ccccc2)cc1 (stereo unspecified) [CLOPERASTINE] | 1.27 | 1.09 | 0.2 | > 30 | 17 | 0.331 | 2.72 | > 30 | > 30 | > 30 | > 30
11 | CCOc1ccc(Cc2cc([C@@H]3O[C@H](CO)[C@@H](O)[C@H](O)[C@H]3O)ccc2Cl)cc1 [DAPAGLIFLOZIN] | > 30 | > 30 | > 30 | > 30 | > 30 | > 30 | > 30 | > 30 | > 30 | > 30 | > 30
12 | CC(=O)OCC(=O)[C@@]1(O)CC[C@H]2[C@@H]3CCC4=CC(=O)C=C[C@]4(C)[C@@]3(Cl)[C@@H](Cl)C[C@@]21C [DICHLORISONE ACETATE] | > 30 | > 30 | > 30 | > 30 | > 30 | > 30 | > 30 | > 30 | > 30 | > 30 | > 30
13 | NNc1nnc(NN)c2ccccc12 [DIHYDRALAZINE] | > 30 | > 30 | 0.44 | > 30 | > 30 | > 30 | > 30 | > 30 | 26.4 | 0.344 | > 30
14 | CCN(CC)CCOC(=O)C(c1ccccc1)C1CCCCC1 (stereo unspecified) [DROFENINE] | 9.55 | 0.219 | 4.7 | > 30 | > 30 | 0.0342 | 24.1 | > 30 | > 30 | > 30 | > 30
15 | CC(=O)Oc1ccc2c(c1)CC[C@@H]1[C@@H]2CC[C@]2(C)[C@@H](O)CC[C@@H]12 [ESTRADIOL ACETATE] | 15 | 8.09 | > 30 | > 30 | 13.1 | > 30 | > 30 | > 30 | > 30 | > 30 | > 30
16 | CCOc1ccccc1C(N)=O [ETHENZAMIDE] | > 30 | > 30 | > 30 | > 30 | > 30 | > 30 | > 30 | > 30 | > 30 | > 30 | > 30
